# Toxic doses and inconclusive results are not listed.
# Test system: L1210 leukemia ip in BDF1 mice, survival T/C
# Experiment: NCI In Vivo Anticancer Drug Screen. Data for tumor model L1210 Leukemia (intraperitoneal) in B6D2F1 (BDF1) mice
# Conditions: endpoint: mean survival time, higher = longer survival
# Procedure, shortened: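 Value reflects the ratio of survival in compound-treated mice to survival in vehicle-treated controls, with both groups carrying the same transplanted tumor.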
# [1] = dose: 100.0 mg/kg/injection, schedule: Q01DX001 (ip), vehicle: saline
# [2] = dose: 200.0 mg/kg/injection, schedule: Q01DX001 (ip), vehicle: saline
# [3] = dose: 400.0 mg/kg/injection, schedule: Q01DX001 (ip), vehicle: saline
# [4] = dose: 100.0 mg/kg/injection, schedule: Q01DX001 (ip), vehicle: carboxymethylcellulose (CMC)
# [5] = dose: 200.0 mg/kg/injection, schedule: Q01DX001 (ip), vehicle: carboxymethylcellulose (CMC)
# [6] = dose: 400.0 mg/kg/injection, schedule: Q01DX001 (ip), vehicle: carboxymethylcellulose (CMC)
# [7] = dose: 100.0 mg/kg/injection, schedule: Q04DX003 (ip), vehicle: Klucel (hydroxypropylcellulose) (HPC)
smiles,measurement,setting,value
O=[N+]([O-])c1ccc2cnn(C[N+]34CN5CN(CN(C5)C3)C4)c2c1,T/C,"dose: 100.0 mg/kg/injection, schedule: Q01DX001 (ip), vehicle: other",103 % of control
same,T/C,"dose: 200.0 mg/kg/injection, schedule: Q01DX001 (ip), vehicle: other",100 % of control
same,T/C,"dose: 400.0 mg/kg/injection, schedule: Q01DX001 (ip), vehicle: other",111 % of control
CC(=O)OCC1OC(n2c(=S)[nH]c3c(N)ncnc32)C(OC(C)=O)C1OC(C)=O (stereo unspecified),T/C,"dose: 50.0 mg/kg/injection, schedule: Q01DX001 (ip), vehicle: saline",98 % of control
same,T/C,[1],98 % of control
same,T/C,[2],95 % of control
same,T/C,[3],98 % of control
O=NN(CCCl)C(=O)NC1CS(=O)(=O)CS(=O)(=O)C1,T/C,"dose: 6.25 mg/kg/injection, schedule: Q01DX001 (ip), vehicle: other",193 % of control
same,T/C,"dose: 12.5 mg/kg/injection, schedule: Q01DX001 (ip), vehicle: other",296 % of control
same,T/C,"dose: 25.0 mg/kg/injection, schedule: Q01DX001 (ip), vehicle: other",322 % of control
same,T/C,"dose: 50.0 mg/kg/injection, schedule: Q01DX001 (ip), vehicle: other",252 % of control
same,T/C,"dose: 75.0 mg/kg/injection, schedule: Q01DX001 (ip), vehicle: other",117 % of control
c1cc(C[N+]23CN4CN(CN(C4)C2)C3)cs1,T/C,"dose: 25.0 mg/kg/injection, schedule: Q04DX003 (ip), vehicle: saline",93 % of control
same,T/C,"dose: 50.0 mg/kg/injection, schedule: Q04DX003 (ip), vehicle: saline",95 % of control
O=C(O)C(SC(C(=O)O)c1ccccc1)c1ccccc1 (stereo unspecified),T/C,"dose: 75.0 mg/kg/injection, schedule: Q04DX003 (ip), vehicle: saline with Tween-80",94 % of control
same,T/C,[1],93 % of control
same,T/C,"dose: 150.0 mg/kg/injection, schedule: Q04DX003 (ip), vehicle: saline with Tween-80",96 % of control
same,T/C,[2],104 % of control
same,T/C,"dose: 300.0 mg/kg/injection, schedule: Q04DX003 (ip), vehicle: saline with Tween-80",104 % of control
same,T/C,[3],98 % of control
CCOC(=O)Nc1cc(NCC(O)CN(C)c2ccccc2)c([N+](=O)[O-])c(N)n1 (stereo unspecified),T/C,[4],95 % of control
same,T/C,[5],95 % of control
same,T/C,[6],92 % of control
CC(C)NC(=O)CN=NNc1nc[nH]c1C(N)=O,T/C,"dose: 25.0 mg/kg/injection, schedule: Q01DX001 (ip), vehicle: Klucel (hydroxypropylcellulose) (HPC)",95 % of control
same,T/C,"dose: 25.0 mg/kg/injection, schedule: Q04DX003 (ip), vehicle: Klucel (hydroxypropylcellulose) (HPC)",99 % of control
same,T/C,"dose: 50.0 mg/kg/injection, schedule: Q01DX001 (ip), vehicle: Klucel (hydroxypropylcellulose) (HPC)",100 % of control
same,T/C,"dose: 50.0 mg/kg/injection, schedule: Q04DX003 (ip), vehicle: Klucel (hydroxypropylcellulose) (HPC)",94 % of control
same,T/C,"dose: 100.0 mg/kg/injection, schedule: Q01DX001 (ip), vehicle: Klucel (hydroxypropylcellulose) (HPC)",97 % of control
same,T/C,[7],101 % of control
CCC(=O)C(CCN(C)C)(c1ccccc1)c1ccccc1,T/C,[1],110 % of control
Cc1ccc(C(O)c2ccccc2)cc1 (stereo unspecified),T/C,"dose: 100.0 mg/kg/injection, schedule: Q01DX009 (ip), vehicle: saline with Tween-80",98 % of control
same,T/C,"dose: 200.0 mg/kg/injection, schedule: Q01DX009 (ip), vehicle: saline with Tween-80",97 % of control
O=C1c2cc([N+](=O)[O-])ccc2-c2cc(Br)cc(Br)c21,T/C,[4],93 % of control
same,T/C,[5],108 % of control
same,T/C,[6],98 % of control
CCCCN(CCCC)c1ccc([N+](=O)[O-])c2no[n+]([O-])c12,T/C,"dose: 15.0 mg/kg/injection, schedule: Q04DX003 (ip), vehicle: saline with Tween-80",100 % of control
same,T/C,"dose: 30.0 mg/kg/injection, schedule: Q04DX003 (ip), vehicle: saline with Tween-80",100 % of control
same,T/C,"dose: 60.0 mg/kg/injection, schedule: Q04DX003 (ip), vehicle: saline with Tween-80",100 % of control
Cc1ncc(CSCC(=O)O)c(N)n1,T/C,[7],103 % of control
same,T/C,"dose: 200.0 mg/kg/injection, schedule: Q04DX003 (ip), vehicle: Klucel (hydroxypropylcellulose) (HPC)",100 % of control
same,T/C,"dose: 400.0 mg/kg/injection, schedule: Q04DX003 (ip), vehicle: Klucel (hydroxypropylcellulose) (HPC)",103 % of control

# From PubChem BioAssay AID248 (DTP/NCI, 2004)
